# From patent US10219513B2, “Safening 4-amino-3-chloro-6-(4-chloro-2-fluoro-3-methoxyphenyl)-5-fluoropyridine-2-carboxylic acid compositions in Brassica species and methods of use thereof” (Dow AgroSciences LLC, priority 2016, dated 2019)
# “And” between values parts separate entries of the source, which are not always exact repeats. Identical values can stand only once.
# Columns and labels:
# [1] = test system: Brassica juncea (Juncea canola or brown mustard, BRSJU); test: Greenhouse postemergence application, visual injury after 20-22 d, BRSJU
# Experimental: (§1) Seeds of the desired test plant species were planted in Sun Gro MetroMix® 306 planting mixture, which typically has a pH of 6.0 to 6.8 and an organic matter content of about 30 percent, in plastic pots with a surface area of 103.2 square centimeters (cm^2). […] The plants were grown for 7-36 days (d) in a greenhouse with an approximate 14-hour (h) photoperiod which was maintained at about 23° C. during the day and 22° C. during the night. Nutrients and water were added on a regular basis and supplemental lighting was provided with overhead metal halide 1000-Watt lamps as necessary. The plants were employed for testing when they reached the second or third true leaf stage.
# (§2) An aliquot of formulated benzyl 4-amino-3-chloro-6-(4-chloro-2-fluoro-3-methoxyphenyl)-5-fluoropyridine-2-carboxylate (florpyrauxifen-benzyl; 300 grams active ingredient per liter (g ai/L) suspension concentrate (SC)) was placed in a 25 mL glass vial and diluted in a volume of 1.25% (v/v) aqueous Agri-dex crop oil concentrated to obtain a stock solution. […] The concentrated stock solutions were diluted with an aqueous mixture of 1.25% v/v of aqueous Agri-dex crop oil concentrate to provide the appropriate application rates. Compound requirements are based upon a 12 milliliter (mL) application volume at a rate of 187 liters per hectare (L/ha). Stock solutions of the formulated materials were prepared following the same procedure. Spray solutions of the compound mixtures were prepared by adding the stock solutions to the appropriate amount of dilution solution to form a 12 mL spray solution. Formulated compounds were applied to the plant material with an overhead Mandel track sprayer equipped with 8002E nozzles calibrated to deliver 187 L/ha over an application area of 0.503 square meters (m^2) at a spray height of 18 inches (43 centimeters (cm)) above average plant canopy. Control plants were sprayed in the same manner with the solvent blank.
# (§3) The treated plants and control plants were placed in a greenhouse as described above and watered by sub-irrigation to prevent wash-off of the test compounds. After 20-22 d, the condition of the test plants as compared with that of the control plants was determined visually and scored on a scale of 0 to 100 percent where 0 corresponds to no injury and 100 corresponds to complete kill. Colby's equation was used to determine the herbicidal effects expected from the mixtures.
# (§4) Benzyl 4-amino-3-chloro-6-(4-chloro-2-fluoro-3-methoxyphenyl)-5-fluoropyridine-2-carboxylate (florpyrauxifen-benzyl, 300 g ai/L SC) was combined in two-, three-, and four-way mixtures with one or more of the following: clopyralid-olamine (as Lontrel™ 35A Herbicidal Concentrate), quinclorac (as Facet 75DF), isoxadifen-ethyl (100 g/L SC), cloquintocet-mexyl (120 g/L EC) or mefenpyr-diethyl (as mefenpyr-diethyl 15WP). The mixtures were applied to kale/Chinese kale (Brassica alboglabra, BRSAG), Juncea canola or brown mustard (Brassica juncea, BRSJU), rutabaga (Brassica napus var. napobrassica, BRSNA), all varieties of canola and oilseed rape (Brassica napus, BRSNN), Nexera™ canola (Brassica napus, BRSNN-NEX), winter oilseed rape (Brassica napus, BRSNW), Roundup Ready® canola (Brassica napus, RR-BRSNN), and turnip or Polish canola (Brassica rapa, BRSRR), and the phytotoxicity of the compositions was measured.
# (§5) Colby's equation was used to determine the herbicidal effects expected from the mixtures evaluated in the described trials (Colby, S. R. Calculation of the synergistic and antagonistic response of herbicide combinations. Weeds 1967, 15, 20-22.).
# (§6) The following equation was used to calculate the expected activity of mixtures containing two active ingredients, A and B: Expected=A+B−(A×B/100) • A=observed efficacy of active ingredient A at the same concentration as used in the mixture; • B=observed efficacy of active ingredient B at the same concentration as used in the mixture.
# [2] = test system: Brassica napus var. napobrassica (rutabaga, BRSNA); test: Greenhouse postemergence application, visual injury after 20-22 d, BRSNA
# Experimental: as §1, §2, §3, §4, §5, §6
# [3] = test system: Brassica napus (all varieties of canola and oilseed rape, BRSNN); test: Greenhouse postemergence application, visual injury after 20-22 d, BRSNN
# Experimental: as §1, §2, §3, §4, §5, §6
# [4] = test system: Brassica rapa (turnip or Polish canola, BRSRR); test: Greenhouse postemergence application, visual injury after 20-22 d, BRSRR
# Experimental: as §1, §2, §3, §4, §5, §6
# [5] = test system: Brassica napus (Roundup Ready canola, RR-BRSNN); test: Greenhouse postemergence application, visual injury after 20-22 d, RR-BRSNN
# Experimental: as §1, §2, §3, §4, §5, §6
# [6] = florpyrauxifen-benzyl 2.5 g ai/ha alone
# [7] = florpyrauxifen-benzyl 5 g ai/ha alone
# [8] = florpyrauxifen-benzyl 10 g ai/ha alone
# [9] = florpyrauxifen-benzyl alone 2.5 g ai/ha
# [10] = florpyrauxifen-benzyl alone 5 g ai/ha
# [11] = florpyrauxifen-benzyl alone 10 g ai/ha
# [12] = postemergence application, greenhouse, application rate (g ai/ha) varies
structure (smiles),measurement,setting,value
"COc1c(Cl)ccc(-c2nc(C(=O)OCc3ccccc3)c(Cl)c(N)c2F)c1F [Florpyrauxifen-benzyl, benzyl 4-amino-3-chloro-6-(4-chloro-2-fluoro-3-methoxyphenyl)-5-fluoropyridine-2-carboxylate]",% Visual Injury Obs,"[1]; BRSJU, 2.5 g ai/ha",7%
same,% Visual Injury Obs,"[1]; BRSJU, 5 g ai/ha",12%
same,% Visual Injury Obs,"[1]; BRSJU, 10 g ai/ha",18%
same,Obs % visual injury,"[1]; BRSJU, florpyrauxifen-benzyl alone 2.5 g ai/ha",7%
same,Obs % visual injury,"[1]; BRSJU, florpyrauxifen-benzyl alone 5 g ai/ha",12%
same,Obs % visual injury,"[1]; BRSJU, florpyrauxifen-benzyl alone 10 g ai/ha",18%
same,% Visual Injury BRSJU Obs,[1]; [6],7%
same,% Visual Injury Obs,[1]; [6],7%
same,% Visual Injury BRSJU Obs,[1]; [7],12%
same,% Visual Injury Obs,[1]; [7],12%
same,% Visual Injury BRSJU Obs,[1]; [8],18%
same,% Visual Injury Obs,[1]; [8],18%
same,Obs % visual injury BRSJU,[1]; [9],7%
same,Obs % visual injury BRSJU,[1]; [10],12%
same,Obs % visual injury BRSJU,[1]; [11],18%
same,% Visual Injury Obs,"[2]; BRSNA, 2.5 g ai/ha",4%
same,% Visual Injury Obs,"[2]; BRSNA, 5 g ai/ha",4%
same,% Visual Injury Obs,"[2]; BRSNA, 10 g ai/ha",13%
same,Obs % visual injury,"[2]; BRSNA, florpyrauxifen-benzyl alone 2.5 g ai/ha",4%
same,Obs % visual injury,"[2]; BRSNA, florpyrauxifen-benzyl alone 5 g ai/ha",4%
same,Obs % visual injury,"[2]; BRSNA, florpyrauxifen-benzyl alone 10 g ai/ha",13%
same,% Visual Injury BRSNA Obs,[2]; [6],4%
same,% Visual Injury Obs,[2]; [6],4%
same,% Visual Injury BRSNA Obs,[2]; [7],4%
same,% Visual Injury Obs,[2]; [7],4%
same,% Visual Injury BRSNA Obs,[2]; [8],13%
same,% Visual Injury Obs,[2]; [8],13%
same,Obs % visual injury BRSNA,[2]; [9],4%
same,Obs % visual injury BRSNA,[2]; [10],4%
same,Obs % visual injury BRSNA,[2]; [11],13%
same,% Visual Injury BRSNA Obs,[2]; [12],4% and 13%
same,% Visual Injury Obs,"[3]; BRSNN, 2.5 g ai/ha",7%
same,% Visual Injury Obs,"[3]; BRSNN, 5 g ai/ha",12%
same,% Visual Injury Obs,"[3]; BRSNN, 10 g ai/ha",18%
same,Obs % visual injury,"[3]; BRSNN, florpyrauxifen-benzyl alone 2.5 g ai/ha",7%
same,Obs % visual injury,"[3]; BRSNN, florpyrauxifen-benzyl alone 5 g ai/ha",12%
same,Obs % visual injury,"[3]; BRSNN, florpyrauxifen-benzyl alone 10 g ai/ha",18%
same,% Visual Injury BRSNN Obs,[3]; [6],7%
same,% Visual Injury Obs,[3]; [6],7%
same,% Visual Injury BRSNN Obs,[3]; [7],12%
same,% Visual Injury Obs,[3]; [7],12%
same,% Visual Injury BRSNN Obs,[3]; [8],18%
same,% Visual Injury Obs,[3]; [8],18%
same,Obs % visual injury BRSNN,[3]; [9],7%
same,Obs % visual injury BRSNN,[3]; [10],12%
same,Obs % visual injury BRSNN,[3]; [11],18%
same,% Visual Injury Obs,"[4]; BRSRR, 2.5 g ai/ha",6%
same,% Visual Injury Obs,"[4]; BRSRR, 5 g ai/ha",9%
same,% Visual Injury Obs,"[4]; BRSRR, 10 g ai/ha",14%
same,Obs % visual injury,"[4]; BRSRR, florpyrauxifen-benzyl alone 2.5 g ai/ha",6%
same,Obs % visual injury,"[4]; BRSRR, florpyrauxifen-benzyl alone 5 g ai/ha",9%
same,Obs % visual injury,"[4]; BRSRR, florpyrauxifen-benzyl alone 10 g ai/ha",14%
same,% Visual Injury BRSRR Obs,[4]; [6],6%
same,% Visual Injury Obs,[4]; [6],6%
same,% Visual Injury BRSRR Obs,[4]; [7],9%
same,% Visual Injury Obs,[4]; [7],9%
same,% Visual Injury BRSRR Obs,[4]; [8],14%
same,% Visual Injury Obs,[4]; [8],14%
same,Obs % visual injury BRSRR,[4]; [9],6%
same,Obs % visual injury BRSRR,[4]; [10],9%
same,Obs % visual injury BRSRR,[4]; [11],14%
same,% Visual Injury BRSRR Obs,[4]; [12],6% and 9% and 14%
same,% Visual Injury Obs,"[5]; RR-BRSNN, 2.5 g ai/ha",6%
same,% Visual Injury Obs,"[5]; RR-BRSNN, 5 g ai/ha",9%
same,% Visual Injury Obs,"[5]; RR-BRSNN, 10 g ai/ha",19%
same,Obs % visual injury,"[5]; RR-BRSNN, florpyrauxifen-benzyl alone 2.5 g ai/ha",6%
same,Obs % visual injury,"[5]; RR-BRSNN, florpyrauxifen-benzyl alone 5 g ai/ha",9%
same,Obs % visual injury,"[5]; RR-BRSNN, florpyrauxifen-benzyl alone 10 g ai/ha",19%
same,% Visual Injury Obs,[5]; [6],6%
same,% Visual Injury RR-BRSNN Obs,[5]; [6],6%
same,% Visual Injury Obs,[5]; [7],9%
same,% Visual Injury RR-BRSNN Obs,[5]; [7],9%
same,% Visual Injury Obs,[5]; [8],19%
same,% Visual Injury RR-BRSNN Obs,[5]; [8],19%
same,Obs % visual injury RR-BRSNN,[5]; [9],6%
same,Obs % visual injury RR-BRSNN,[5]; [10],9%
same,Obs % visual injury RR-BRSNN,[5]; [11],19%
